Consider one molecule from patent US8552011B2, “6-(C2-6alkylseleno)purines and methods for treating neural measles viral infection therewith” (priority 2008, dated 2013).

The subject of data set [1] is measles virus strain Halle (MV-H). The experiment in a line: Anti-viral screening, syncytia formation in infected HeLa cells. The class given is cell-based. As to conditions: for reduction of syncytia formation: MV-H infected HeLa cells. The protocol: (§1) Viruses: Two strains of measles virus (MV) were evaluated in this study: 1) strain Edmonston (MV-E), the prototypical lab-adapted strain originally derived from the blood of a human patient in the acute phase of a typical infection, and 2) strain Halle (MV-H), a neurovirulent strain derived from a lymph node biopsy of a human patient with subacute sclerosing panencephalitis. One strain of herpes simplex virus (HSV) was evaluated: HSV-2 (strain G). This strain is a primary isolate derived from an active genital infection.
(§2) Infection conditions: Cells (4×10^4 cells/well) were seeded in 24-well culture plates and pre-treated with ESP for 24 hr prior to infection. Cells were incubated with 100 μl of MV at the indicated MOI for 1 h at 37° C. before conditioned media containing the test compound and 5% FCS was replaced for the assay duration. MV replication was evaluated daily by microscopic analysis until cells were stained with 0.1% cresyl violet dye and scored for cytopathic effects. Similar conditions were employed for HSV-2 with the exception that infections were performed at 35° C. over a test period of 72 h.

The subject of data set [2] is measles virus strain Edmonston (MV-E). The description is as above. It counts as cell-based. As for the experimental part:
as §1, §2

The subject of data set [3] is HeLa cells. The experiment in a line: MTT tetrazole reduction assay, acute toxicity. The class given is cell-based, human. As to conditions: 24 h incubation, 65, 10, 1, 0.1, 0.01, 0.001 ng/ml, 0.1% DMSO. The text has this: (§3) Cells and cell culture: HeLa cells (human cervical carcinoma) were used for these studies. Cells were maintained in DMEM medium supplemented with 10% fetal calf serum (FCS) and antibiotics in a humidified, 5% CO2 environment. Cells were passaged as required by trypsinization.
(§4) Evaluation of toxicity: Acute toxicity was quantified using a standard tetrazole reduction assay as a measure of cell proliferation/viability. Briefly, quadruplicate wells of HeLa cells (1×10^4 cells, 96-well plates) were incubated for 24 h with the ESP or DMSO as a control and the reduction of tetrazolium salt (MTT) to purple formazan by mitochondrial reductases enzymes in viable cells detected as a change in absorbance (λ=500-600 nm). Overt cytotoxicity was also evaluated qualitatively by microscopic analysis over longer exposure periods during the antiviral tests. Toxicity was considered to be evident if cell injury or loss was observed or a reduction in MTT activity of greater than twenty-five percent relative to controls was detected.
(1)—Evaluation of acute toxicity: ESP was assessed by MTT assay as described above using a series of dilutions (w/v): 65, 10, 1, 0.1, 0.01, 0.001 and 0 ng/ml. […] Toxicity was evaluated over a 24 h incubation period, a time period that corresponded to the pre-treatment phase of the anti-viral testing protocol.
(In general: Formazan colour is commonly taken as a measure of viable cells.)

Data set [4] concerns HeLa cells. The experiment in a line: Overt cytotoxicity by microscopic analysis during the antiviral tests. The class given is cell-based, human. The note with it: for toxic effects: by 72 h PI.
Excerpt: as §3, §4, §2

In data set [5] the test system is HSV-2 (strain G). As to the kind of experiment: Anti-HSV screening, plaque formation in infected HeLa cells. The class given is cell-based, herpes simplex virus. The note with it: HSV-2, MOI 1, 0.1, 0.01, ESP 1, 0.5, 0.25, 0.1 μg/ml, 72 h. As for the experimental part:
as §1, §2
(4)—Anti-HSV screening: ESP was evaluated at 1, 0.5. 0.25, 0.1 and 0 μg/ml against HSV-2 at MOI=I, 0.1 and 0.01.

`CC[Se]c1ncnc2[nH]cnc12` [ESP]: the “reduction of syncytia formation” value is given as 25% in data set [1] (0.1 μg/ml ESP) and 66% in data set [1] (1 μg/ml ESP). Also, the “syncytia formation, treated vs vehicle controls” value in data set [1] (preliminary screening, MV-H, MOI 1.0, 0.1, 0.01, Day 5 PI) is listed as “a decrease in syncytia formulation was evident”. For the same molecule, in data set [2] (anti-MV screening, MOI 1.0, 0.1, 0.01, ESP 5-0.1 ng/ml as printed), the “syncytia formation vs untreated controls” value was “did not significantly decrease syncytia formation”. For the same molecule, the “syncytia formation, treated vs untreated wells” value in data set [2] (preliminary screening, MOI 1.0, 0.1, 0.01, Day 5 PI) is “syncytia formation did not differ between treated and untreated wells”. For the same molecule, in data set [3], the “acute toxicity (MTT assay)” value was “toxicity was not observed”. Moreover, the “concentration usable in the absence of toxic effects” value in data set [4] is ≤ 1000 ng/mL. The toxic effects result in data set [4] (2.5 μg/ml) and in data set [4] (5 μg/ml) was “toxic effects were observed” in each case. For the same molecule, the overt cytotoxicity result in data set [4] (10 μg/ml, 72 h post-infection) is on record as “overt cytotoxicity was observed”; in data set [4] (65 μg/ml, 24 h post-infection), “overt cytotoxicity was observed”. The “toxicity during pre-treatment phase” value in data set [4] (24 h pre-treatment before infection, 65-0.01 μg/ml) is “no toxicity was evident”. In addition, the toxicity result in data set [4] (concentrations less than or equal to 1 μg/ml, time-frames approaching one week) was “No toxicity was observed”. The “viral replication as evidenced by plaque formation, vs vehicle controls” value in data set [5] is “No difference in viral replication”.
